From publication PMC8795738, “The Tarantula Venom Peptide Eo1a Binds to the Domain II S3-S4 Extracellular Loop of Voltage-Gated Sodium Channel NaV1.8 to Enhance Activation” (Frontiers in Pharmacology, 2022)
Where a SMILES comes first, the peptide text is derived from it. Bridges are numbered along the chain shown (N, C = ends).

What was measured:
[1] = tested on: NaV1.7 with DII S1-S2 loop of NaV1.8; assay: Voltage-dependence of activation, NaV1.7/NaV1.8 chimera DII S1-S2; assay type: cell-based, human; conditions: Eo1a 10 μM; NaV1.7 with NaV1.8 DII S1-S2; HEK293 β1/β2, transient; mean ± SEM, n = 3–6 cells
Protocol: (§1) Human Embryonic Kidney (HEK) 293 cells stably expressing human NaV1.1 to NaV1.7/β1 (SB Drug Discovery, Glasgow, United Kingdom), Chinese Hamster Ovary (CHO) cells stably expressing human NaV1.8/β3 in a tetracycline-inducible system (ChanTest, Cleveland, OH, United States), and HEK293 cells stably expressing rat transient receptor potential vanilloid 1 (TRPV1) were cultured as previously described ([Yin et al., 2020]). Human KV2.1 and NaV1.7 mutants were transiently transfected into HEK293 cells stably expressing β1/β2 using Lipofectamine 2000 (Thermo Fisher Scientific, Scoresby, VIC, Australia) and used for patch-clamp experiments 48 h after transfection. Cells were grown in an incubator at 37°C with 5% CO2 and passaged every 3–4 d (at 70–80% confluency) using TrypLE Express (Thermo Fisher Scientific).
(§2) Wild-type (WT) hNaV1.7 cDNA (NM_002,977, a gift from Dr James Cox, University College London) was subjected to in vitro site-directed mutagenesis using the QuikChange™ XL mutagenesis kit (Agilent Technologies) following the manufacturer’s instructions. NaV1.7 mutants were generated by substituting the domain II (DII) S1-S2 loop, the DII S3-S4 loop, the domain IV (DIV) S1-S2 loop and the DIV S3-S4 loop in NaV1.7 with the corresponding regions of NaV1.8. The mutations were verified by sequencing at the Brisbane node of the Australian Genome Research Facility. […]

[2] = tested on: NaV1.7 with DIV S3-S4 loop of NaV1.8; assay: Voltage-dependence of activation, NaV1.7/NaV1.8 chimera DIV S3-S4; assay type: cell-based, human; conditions: Eo1a 10 μM; NaV1.7 with NaV1.8 DIV S3-S4; HEK293 β1/β2, transient; mean ± SEM, n = 3–6 cells
Protocol: as §1, §2

NaV1.2 = assay: I-V protocol, whole-cell patch-clamp, NaV1.2; assay type: cell-based, human; conditions: Eo1a 10 μM
Protocol: as §1
(§3) Automated whole-cell patch-clamp recordings were performed with a QPatch-16 automated electrophysiology platform (Sophion Bioscience, Ballerup, Denmark) using single-hole (QPlate 16 with a standard resistance of 2 ± 0.4 MΩ) or multi-hole (QPlate 16X with a standard resistance 0.2 ± 0.04 MΩ, NaV1.8 only) as previously described ([McMahon et al., 2020]).
(§4) The extracellular solution (ECS) consisted of (in mM) 145 NaCl (replaced with 70 choline chloride for NaV1.4, NaV1.5 and NaV1.7), 4 KCl, 2 CaCl2, 1 MgCl2, 10 HEPES, and 10 glucose, pH to 7.4 with NaOH (adjusted to 305 mOsm/L with sucrose). For NaV recordings the intracellular solution (ICS) consisted of (in mM) 140 CsF, 1 EGTA, 5 CsOH, 10 HEPES, and 10 NaCl, pH to 7.3 with CsOH (adjusted to 320 mOsm/L with sucrose). For KV2.1 recordings the ICS consisted of (in mM) 50 KCl, 60 KF, 10 EGTA, 10 HEPES, 10 NaCl pH to 7.3 with KOH (adjusted to 320 mOsm/L with sucrose). […]
(§5) The time constant of fast inactivation (τ) was computed by fitting the current decay traces with a single exponential function using QPatch Assay Software 5.6 (Sophion). The time to peak was calculated from pulse onset to peak inward current using QPatch Assay Software 5.6 (Sophion).

TRPV1 = TRPV1 calcium assay (FLIPR); assay type: cell-based; conditions: Eo1a 10 μM, HEK293, rat TRPV1, Calcium 4 dye, 300 s, compared with capsaicin 300 nM, n = 3 wells
Protocol: as §1
The activity of Eo1a at rTRPV1 was assessed using the assay described previously ([Yin et al., 2020]). Briefly, the TRPV1 activator capsaicin (300 nM) and Eo1a (10 μM) were added to cells loaded with Calcium 4 no-wash dye (Molecular Devices) and changes in fluorescence were assessed using a FLIPR^TETRA (excitation 470–495 nm, emission 515–575 nm) every 1 s for 300 s. Fluorescence responses were normalized to baseline fluorescence (ΔF/F) and plotted versus time using ScreenWorks 3.2.0.14.

NaV1.3 = assay: I-V protocol, whole-cell patch-clamp, NaV1.3; assay type: cell-based, human; conditions: Eo1a 10 μM
Protocol: as §1, §3, §4, §5

[3] = tested on: NaV1.7 with DIV S1-S2 loop of NaV1.8; assay: Voltage-dependence of activation, NaV1.7/NaV1.8 chimera DIV S1-S2; assay type: cell-based, human; conditions: Eo1a 10 μM; NaV1.7 with NaV1.8 DIV S1-S2; HEK293 β1/β2, transient; mean ± SEM, n = 3–6 cells
Protocol: as §1, §2

NaV1.6 = assay: I-V protocol, whole-cell patch-clamp, NaV1.6; assay type: cell-based, human; conditions: Eo1a 10 μM
Protocol: as §1, §3, §4, §5

NaV1.1 = assay: I-V protocol, whole-cell patch-clamp, NaV1.1; assay type: cell-based, human; conditions: Eo1a 10 μM
Protocol: as §1, §3
The extracellular solution (ECS) consisted of (in mM) 145 NaCl (replaced with 70 choline chloride for NaV1.4, NaV1.5 and NaV1.7), 4 KCl, 2 CaCl2, 1 MgCl2, 10 HEPES, and 10 glucose, pH to 7.4 with NaOH (adjusted to 305 mOsm/L with sucrose). For NaV recordings the intracellular solution (ICS) consisted of (in mM) 140 CsF, 1 EGTA, 5 CsOH, 10 HEPES, and 10 NaCl, pH to 7.3 with CsOH (adjusted to 320 mOsm/L with sucrose). For KV2.1 recordings the ICS consisted of (in mM) 50 KCl, 60 KF, 10 EGTA, 10 HEPES, 10 NaCl pH to 7.3 with KOH (adjusted to 320 mOsm/L with sucrose). TTX (1 μM) was added to the ECS for NaV1.8 recordings to inhibit background endogenous TTX sensitive current in CHO cells.
I-V curves were obtained with a holding potential of −90 mV followed by a series of 500 ms step pulses that ranged from −110 to +80 mV in 5-mV increments (repetition interval 5 s) before and after 5 min incubation with Eo1a (10 μM). Conductance-voltage (G-V) curves were obtained by calculating the conductance (G) at each voltage (V) using equation G = I/(V − V rev ), where V rev is the reversal potential. G-V curves were fitted with a Boltzmann equation. […]
as §5

CC[C@H](C)[C@@H]1NC(=O)[C@H](CCCNC(=N)N)NC(=O)[C@@H]2CSSC[C@@H]3NC(=O)CNC(=O)CNC(=O)[C@H](CC(C)C)NC(=O)[C@H](Cc4ccccc4)NC(=O)[C@H](Cc4c[nH]c5ccccc45)NC(=O)[C@H](CCCNC(=N)N)NC(=O)[C@@H](NC(=O)[C@@H](N)CC(=O)O)CSSC[C@H](NC(=O)[C@H](CSSC[C@@H](C(=O)N[C@@H](C)C(=O)N[C@@H](Cc4c[nH]c5ccccc45)C(=O)N[C@@H](CC(=O)O)C(=O)NCC(=O)N[C@H](C(=O)N[C@@H](Cc4ccccc4)C(N)=O)[C@@H](C)O)NC(=O)[C@H](Cc4ccc(O)cc4)NC(=O)[C@H](CCCCN)NC(=O)[C@H]([C@@H](C)CC)NC(=O)[C@H](Cc4ccc(O)cc4)NC(=O)CNC(=O)[C@H](CC(=O)O)NC1=O)NC(=O)[C@H](CC(=O)O)NC(=O)[C@H](CO)NC(=O)[C@H](CC(=O)O)NC(=O)[C@H](CCCCN)NC(=O)[C@H](CO)NC3=O)C(=O)N[C@@H](CCCCN)C(=O)N[C@@H](Cc1c[nH]cn1)C(=O)N[C@@H](CC(C)C)C(=O)N[C@@H](C)C(=O)N2 [Eo1a] (H-DCRWFLGGCSKDSDCCKHLACRIDGYIKYCAWDGTF-NH2; disulfide 2-16, 9-21, 15-30 (inferred); N-terminus assumed)
ΔV1/2 activation [1]: −3.7 ± 0.5 mV
ΔV1/2 activation [2]: −6.7 ± 0.5 mV
V1/2 activation (NaV1.2; 5 min, control −15.9 ± 1.2 mV, *p < 0.05, mean ± SEM, n = 4–6): −21.3 mV
V1/2 inactivation (steady-state fast inactivation) (NaV1.2; 5 min, control −54.6 ± 1.6 mV, mean ± SEM, n = 4–6): −52.7 ± 0.5
effect on inactivation kinetics (NaV1.2; test pulse −20 mV): minimal effect
activity at TRPV1 (Ca2+ dye fluorescence over baseline) (TRPV1): minimal activity
V1/2 activation (NaV1.3; 5 min, control −20.4 ± 2.2 mV, *p < 0.05, mean ± SEM, n = 4–6): −27.9 mV
V1/2 inactivation (steady-state fast inactivation) (NaV1.3; 5 min, control −63.2 ± 1.0 mV, mean ± SEM, n = 4–6): −63.0 ± 1.5
effect on inactivation kinetics (NaV1.3; test pulse −20 mV): minimal effect
ΔV1/2 activation [3]: −4.8 ± 0.6 mV
V1/2 activation (NaV1.6; 5 min, control −22.7 ± 1.0 mV, *p < 0.05, mean ± SEM, n = 4–6): −35.0 mV
V1/2 inactivation (steady-state fast inactivation) (NaV1.6; 5 min, control −56.3 ± 1.1 mV, mean ± SEM, n = 4–6): −56.2 ± 1.0
effect on fast inactivation (NaV1.6; test pulse −20 mV): delayed fast-inactivation
peak current I/I0 (NaV1.1; 5 min, peak from I-V protocol at any voltage, normalised to buffer control, HEK293 hNaV1.1/β1, mean ± SEM, n = 4–6 cells): 0.89 ± 0.03
V1/2 activation (NaV1.1; NaV1.1, 5 min, control −21.5 ± 1.5 mV, mean ± SEM, n = 4–6): −24.4 ± 2.1 mV
V1/2 inactivation (steady-state fast inactivation) (NaV1.1; NaV1.1, 5 min, control −55.0 ± 1.1 mV, mean ± SEM, n = 4–6): −57.8 ± 2.0
effect on inactivation kinetics (NaV1.1; NaV1.1, test pulse −20 mV): minimal effect
